Tests used:
CgFUT2 [1] = target: T1, CgFUT2 (Magallana gigas, UniProt A0AA95ZAK5); assay: fucosyl transfer to pNP-lactose, HPLC with UV detection; assay type: biochemical; conditions: 0.25 mM GDP; 3 mM GDP-Fuc, 0.5 mM pNP-β-lactose, 20 mM MnCl2, 2 mM ATP, MES pH 7.0, 37 °C; Sf9 lysate
T1 construct: crude cell lysate used (purification failed)
T1 sequence (A0AA95ZAK5 1-350): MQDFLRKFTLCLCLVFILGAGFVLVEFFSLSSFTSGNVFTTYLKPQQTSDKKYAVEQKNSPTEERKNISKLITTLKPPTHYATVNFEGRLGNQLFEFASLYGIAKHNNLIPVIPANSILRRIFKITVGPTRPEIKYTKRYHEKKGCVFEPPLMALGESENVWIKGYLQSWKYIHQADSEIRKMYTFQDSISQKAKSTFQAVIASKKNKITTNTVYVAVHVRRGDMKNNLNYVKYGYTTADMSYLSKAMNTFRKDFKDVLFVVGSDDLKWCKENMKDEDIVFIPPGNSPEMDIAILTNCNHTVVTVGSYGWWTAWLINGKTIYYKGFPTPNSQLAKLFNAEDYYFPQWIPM

CgFUT2 [2] = target: T1, CgFUT2; assay: fucosyl transfer, HPLC with UV detection; product by NMR; assay type: biochemical; conditions: acceptor; 3 mM GDP-Fuc, 20 mM MnCl2, MES pH 7.0, 37 °C; control Sf9 lysate without enzyme as blank

Row | Compound | % decrease of activity at 0.25 mM (CgFUT2 [1]) | fucosyl transfer, HPLC with UV detection; product by NMR (CgFUT2 [2])
1 | Nc1nc2c(ncn2[C@@H]2O[C@H](COP(=O)(O)OP(=O)(O)O)[C@@H](O)[C@H]2O)c(=O)[nH]1 [GDP] | 30% | –
2 | O=[N+]([O-])c1ccc(O[C@@H]2O[C@H](CO)[C@@H](O[C@@H]3O[C@H](CO)[C@H](O)[C@H](O)[C@H]3O)[C@H](O)[C@H]2O)cc1 [pNP-β-lactose] | – | Sf9 cell lysate expressing CgFUT2 and a control Sf9 cell lysate was assessed using pNP-β-lactose

— article PMC11522050, “Cloning, expression and characterisation of a novel mollusc α-1,2-Fucosyltransferase from Crassostrea gigas (CgFUT2)” (Glycoconjugate Journal, 2024)
